Source: patent US6495542B1, “Benzamide derivatives as vasopressin antagonists” (Fujisawa Pharmaceutical Co., Ltd., priority 1998, dated 2002)
Counter-ions that a name gives are not always drawn.

How the values were obtained:
[1] = target: Vasopressin 1 (VI) Receptor (Rattus norvegicus, UniProt P30560); test: Vasopressin 1 (V1) receptor binding, rat; settings: Test 1 V1 receptor binding
Description: (§1) Vasopressin 1 (VI) Receptor Binding
(§2) Competition assays were conducted at equilibrium (15 minutes at 30° C.) by using 1.5 nM ^3H-vasopressin (40-87 Ci/mmol; New England Nuclear) in 100 mM Tris-HCl buffer (pH 7.4). Nonspecific binding was determined by using 1 μM vasopressin. After incubation, the reaction was terminated by adding 5 ml of ice-cold 100 mM Tris-HCl buffer (pH 7.4), and then filtered immediately through Whatman glass filter (GF/C). The filter was washed twice with the same buffer. The glass filter was placed in a liquid scintillation cocktail, and the radioactivity thereof was counted by using a liquid scintillation counter. Competition activity of the test compound was represented by IC50 values.

human V2 receptor = target: T1, human V2 receptor (Homo sapiens, UniProt P30518); test: Vasopressin 2 (V2) receptor binding, 3H-vasopressin competition on membranes of CHO cells expressing human V2 receptor; settings: human V2 receptor in CHO cells; competition with 0.5 nm 3H-vasopressin, 2 hours at 22° C.
T1 construct: expressed in transfected cells
T1 sequence (P30518 whole entry): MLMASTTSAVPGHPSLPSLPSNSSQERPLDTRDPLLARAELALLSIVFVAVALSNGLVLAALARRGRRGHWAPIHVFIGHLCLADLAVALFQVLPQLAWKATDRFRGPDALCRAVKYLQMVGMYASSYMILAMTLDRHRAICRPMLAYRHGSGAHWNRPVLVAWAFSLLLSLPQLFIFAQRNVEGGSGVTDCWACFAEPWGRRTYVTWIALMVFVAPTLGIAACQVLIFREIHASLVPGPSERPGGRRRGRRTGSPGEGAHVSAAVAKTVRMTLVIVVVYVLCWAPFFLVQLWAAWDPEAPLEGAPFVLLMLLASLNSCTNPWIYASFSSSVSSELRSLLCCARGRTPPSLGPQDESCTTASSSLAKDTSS
Excerpt: Vasopressin 2 (V2) Receptor Binding
For binding assays, a receptor cDNA was permanently expressed in Chinese hamster ovary (CHO) cells. A vector directing expression of the cDNA of a human V2 receptor was transfected into the CHO cells, and the clonal cell lines expressing the human V2 receptor were established essentially as described previously (Nakajima, Y., et. al. J. Biol. chem., 267, 2437, 1992).
DNA-transfected cells were harvested and homogenized in ice-cold […] Tris-HCl (pH 7.4), 10 mM MgCl2, 1 mM EDTA and 5 μg/ml p-amidinophenylmethylsulfonyl fluoride (A-PMSF). The homogenate was centrifuged at 500×g for 10 minutes. The supernatant was centrifuged at […] for 1 hour. The final pellet was suspended in 25 mM Tris-HCl buffer (pH 7.4, containing 10 mM MgCl2, 1 mM EDTA and 5 μg/ml A-PMSF), and stored in small aliquots at −80° C.
Competition assays were conducted at equilibrium (2 hours at 22° C.) by using 0.5 nm ^3H-vasopressin (40-87 Ci/mmol; New England Nuclear) in 100 mM Tris-HCl buffer (pH 7.4, containing 5 mM MgCl2, 5 μg/ml A-PMSF, 4 μg/ml leupeptin, 40 μg/ml bacitracin, 20 μg/ml chymostatin and 0.1% bovine serum albimin). Nonspecific binding was determined by using 1 μM vasopressin. After incubation, the reaction mixture was immediately filtered through Whatman glass filter (GF/C). The filter was washed twice with the same buffer. The radioactivity was counted by using a liquid scintillation counter. Competition activity of the test compound was represented by IC50 values.

[2] = target: T2, Vasopressin 1 (VI) Receptor (Homo sapiens, UniProt P37288); test: Vasopressin 1 (V1) receptor binding, 3H-vasopressin competition on human platelet membranes; settings: competition with 1.5 nM 3H-vasopressin, 15 minutes at 30° C.
T2 construct: Platelet-rich plasma (PRP) was prepared by centrifugation of whole blood; from tissue; host or cells: platelet membranes from blood of a normal subject
T2 sequence (P37288 whole entry): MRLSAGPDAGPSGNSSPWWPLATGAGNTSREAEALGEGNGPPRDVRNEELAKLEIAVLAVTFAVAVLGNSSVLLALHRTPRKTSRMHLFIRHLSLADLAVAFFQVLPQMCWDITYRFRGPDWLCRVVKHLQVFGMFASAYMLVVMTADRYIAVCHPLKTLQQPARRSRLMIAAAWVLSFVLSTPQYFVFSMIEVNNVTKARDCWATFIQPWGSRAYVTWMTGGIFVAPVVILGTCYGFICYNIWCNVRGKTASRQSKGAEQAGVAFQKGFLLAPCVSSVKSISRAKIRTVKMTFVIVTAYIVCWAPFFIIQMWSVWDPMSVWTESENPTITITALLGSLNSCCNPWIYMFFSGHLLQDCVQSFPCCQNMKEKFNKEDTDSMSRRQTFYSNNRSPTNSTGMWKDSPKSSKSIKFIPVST
Description: as §1
Blood was obtained from normal subject by venipuncture. Platelet-rich plasma (PRP) was prepared by centrifugation of whole blood at 200×g for 10 minutes. PRP was centrifuged at 45,000×g for 30 minutes. The remaining pellet was resuspended in 10 volume of ice-cold 100 mM Tris-HCl buffer (pH 7.4, containing 5 mM MgCl2, 0.1% bovine serum albumin and 1 mM EDTA), and again centrifuged at 45,000×g for 30 minutes. The final pellet was resuspended in 100 mM Tris-HCl buffer. The resulting suspension was used immediately for the binding assay.
as §2

Chain of Vasopressin 1 (VI) Receptor (Rattus norvegicus, UniProt P30560) (P30560 whole entry): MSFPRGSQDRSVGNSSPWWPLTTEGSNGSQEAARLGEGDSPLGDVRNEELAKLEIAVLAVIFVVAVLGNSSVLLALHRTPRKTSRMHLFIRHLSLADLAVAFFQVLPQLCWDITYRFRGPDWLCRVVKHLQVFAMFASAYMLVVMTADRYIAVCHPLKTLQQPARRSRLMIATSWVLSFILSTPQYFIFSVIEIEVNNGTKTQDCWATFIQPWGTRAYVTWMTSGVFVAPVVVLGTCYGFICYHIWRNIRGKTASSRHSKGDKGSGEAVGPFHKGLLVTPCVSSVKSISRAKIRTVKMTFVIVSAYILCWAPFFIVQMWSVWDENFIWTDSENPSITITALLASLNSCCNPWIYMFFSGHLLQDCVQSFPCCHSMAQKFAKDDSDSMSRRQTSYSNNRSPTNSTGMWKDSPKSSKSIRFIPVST

IC50 [1]	IC50 (human V2 receptor)	IC50 [2]	Compound
1.7 nM	104 nM	0.7 nM	CCc1nc2c(NC(=O)c3ccc(C(=O)N4CCCCc5ccccc54)cc3OC)cccc2[nH]1 [Example 55, N-(2-Ethyl-1H-benzimidazol-4-yl)-2-methoxy-4-(2,3,4,5-tetrahydro-1H-1-benzazepin-1-yl)carbonylbenzamide hydrochloride]
2.1 nM	241 nM	0.41 nM	COc1cc(C(=O)N2CCCCc3ccccc32)ccc1C(=O)Nc1cccc2[nH]c(C)nc12 [Example 2, 2-methoxy-N-(2-methyl-1H-benzimidazol-4-yl)-4-(2,3,4,5-tetrahydro-1H-1-benzazepin-1-yl)-carbonylbenzamide]
1.8 nM	69 nM	0.55 nM	COc1cc(C(=O)N2CCCCc3ccccc32)ccc1C(=O)Nc1cccc2[nH]cnc12 [Example 50, N-(1H-Benzimidazol-4-yl)-2-methoxy-4-(2,3,4,5-tetrahydro-1H-1-benzazepin-1-yl)carbonylbenzamide hydrochloride]
2.2 nM	159 nM	0.5 nM	COc1cc(C(=O)N2CCCCc3ccccc32)ccc1C(=O)Nc1cccc2[nH]c(C(=O)N(C)C)nc12 [Example 73, N-[2-(N,N-Dimethylcarbamoyl)-1H-benzimidazol-4-yl]-2-methoxy-4-(2,3,4,5-tetrahydro-1H-1-benzazepin-1-yl)carbonylbenzamide]
0.2 nM	140 nM	0.08 nM	COc1cc(C(=O)N2CCCCc3ccccc32)ccc1C(=O)Nc1cccc2[nH]c(N(C)CCN)nc12 [Example 76, N-[2-[N-(2-Aminoethyl)-N-methylamino]-1H-benzimidazol-4-yl]-2-methoxy-4-(2,3,4,5-tetrahydro-1H-1-benzazepin-1-yl)carbonylbenzamide dihydrochloride]
